Measurements from US8304447B2, “2-acylaminopropoanol-type glucosylceramide synthase inhibitors” (Genzyme Corporation, priority 2007, dated 2012).
pIC50: −log10 of the molar value.

Each molecule was assayed on GM3 (assay: GM3 Elisa assay). Settings: 48 h, Table 1; B16-FO cells, 2 days incubation; read-out: IC50_uM_Mean.
Assay type: cell-based
In short: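 Cellular GM3 ELISA: fixed cells probed with monoclonal anti-GM3 (NeuAc), HRP-conjugated anti-IgM and fluorogenic Quantablu substrate, read at Ex 325/Em 420. Cells were B16-FO, treated 2 days after a 6 h attachment on collagen-coated wells.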
`O=C(NCc1ccc(Br)cc1)N[C@H](CN1CCCC1)[C@H](O)c1ccc2c(c1)OCCO2` [Compound 40, 1-(4-bromobenzyl)-3-((1R,2R)-1-(2,3-dihydrobenzo[β][1,4]dioxin-6-yl)-1-hydroxy-3-(pyrrolidin-1-yl)propan-2-yl)urea] gave a pIC50 of no less than 7.00.
`COc1ccc(OCCC(=O)N[C@H](CN2CCCC2)[C@H](O)c2ccc3c(c2)OCCO3)cc1` [Compound 61, N-((1R,2R)-1-(2,3-dihydrobenzo[β][1,4]dioxin-6-yl)-1-hydroxy-3-(pyrrolidin-1-yl)propan-2-yl)-3-(4-methoxyphenoxy)propanamide] gave a pIC50 of no less than 7.00.
In the case of `O=C(N[C@H](CN1CCCC1)[C@H](O)c1ccc2c(c1)OCCO2)c1ccc2sccc2c1` [Compound 19, N-((1R,2R)-1-(2,3-dihydrobenzo[β][1,4]dioxin-6-yl)-1-hydroxy-3-(pyrrolidin-1-yl)propan-2-yl)benzo[b]thiophene-5-carboxamide], the pIC50 was 6.00 to 7.00.
With `COc1cccc(CNC(=O)N[C@H](CN2CCCC2)[C@H](O)c2ccc3c(c2)OCCO3)c1` [Compound 80, 1-((1R,2R)-1-(2,3-dihydrobenzo[β][1,4]dioxin-6-yl)-1-hydroxy-3-(pyrrolidin-1-yl)propan-2-yl)-3-(3-methoxybenzyl)urea] the pIC50 was 6.00 to 7.00.
For `O=C(COc1ccc(Cl)c(Cl)c1)N[C@H](CN1CCCC1)[C@H](O)c1ccc2c(c1)OCCO2` [Compound 87, 2-(3,4-dichlorophenoxy)-N-((1R,2R)-1-(2,3-dihydrobenzo[β][1,4]dioxin-6-yl)-1-hydroxy-3-(pyrrolidin-1-yl)propan-2-yl)acetamide], the pIC50 was no less than 7.00.
`Cc1ccccc1CC(=O)N[C@H](CN1CCCC1)[C@H](O)c1ccc2c(c1)OCCO2` [Compound 35, N-((1R,2R)-1-(2,3-dihydrobenzo [β][1,4]dioxin-6-yl)-1-hydroxy-3-(pyrrolidin-1-yl)propan-2-yl)-2-o-tolylacetamide] was tested, and the pIC50 was 5.52 to 6.00.
Molecule `O=C(N[C@H](CN1CCCC1)[C@H](O)c1ccc2c(c1)OCCO2)[C@@H](O)Cc1ccccc1` [Compound 25, (S)—N-((1R,2R)-1-(2,3-dihydrobenzo[β][1,4]dioxin-6-yl)-1-hydroxy-3-(pyrrolidin-1-yl)propan-2-yl)-2-hydroxy-3-phenylpropanamide] has a pIC50 of 6.00 to 7.00.
For `COCCc1ccc(OCCC(=O)N[C@H](CN2CCCC2)[C@H](O)c2ccc3c(c2)OCCO3)cc1` [Compound 202, N-((1R, R)-1-(2,3-dihydrobenzo[β][1,4]dioxin-6-yl)-1-hydroxy-3-(pyrrolidin-1-yl)propan-2-yl)-3-(4-(2-methoxyethyl)phenoxy)propanamide (2R, R)-2,3-dihydroxysuccinate], the pIC50 was 6.00 to 7.00.
`O=C(CCOc1cc(Cl)ccc1Cl)N[C@H](CN1CCCC1)[C@H](O)c1ccc2c(c1)OCCO2` [Compound 55, 3-(2,5-dichlorophenoxy)-N-((1R,2R)-1-(2,3-dihydrobenzo[β][1,4]dioxin-6-yl)-1-hydroxy-3-(pyrrolidin-1-yl)propan-2-yl)propanamide] gave a pIC50 of no less than 7.00.

Same assay, conditions: 48 h, Table 2; B16-FO cells, 2 days incubation; read-out: IC50_uM_Mean
`CCCCCCCC(=O)N[C@H](CN1CCCC1)[C@H](O)c1cc(O)c2c(c1)OCCO2` [Compound 318] was tested, and the pIC50 was 6.00 to 7.00.
`Cc1ccc(OCCC(=O)N[C@H](CN2CCCC2)[C@H](OC(=O)CCOc2ccc(C)cc2)c2ccc3c(c2)OCCO3)cc1` [Compound 252] showed a pIC50 of 6.00 to 7.00.
In the case of `COc1ccc([C@@H](O)[C@@H](CN2CCCC2)NC(=O)CCCCCC(=O)c2ccc(OC(C)C)cc2)cc1` [Compound 271], the pIC50 was no less than 7.00.
Work on `COc1ccc(C(=O)CCCCCC(=O)N[C@H](CN2CCCC2)[C@H](O)c2ccc(OC)c(OC)c2)cc1` [Compound 276] yielded a pIC50 of 6.00 to 7.00.
With `COc1ccc(C(=O)CCCCC(=O)N[C@H](CN2CCCC2)[C@H](O)c2ccc(OC)cc2)cc1` [Compound 269] the pIC50 was no less than 7.00.

Same assay, conditions: Table 2; B16-FO cells, 2 days incubation; read-out: IC50_uM_Mean
With `COc1ccc([C@@H](O)[C@@H](CN2CCCC2)NC(=O)OCc2ccccc2)cc1` [Compound 289, benzyl (1R,2R)-1-hydroxy-1-(4-methoxyphenyl)-3-(pyrrolidin-1-yl)propan-2-ylcarbamate] the pIC50 was 6.00 to 7.00.

Same assay, conditions: Table 3 (IC 50 Values); B16-FO cells; read-out: IC50_uM_Mean
With `CCCCCCCC(=O)N[C@@H](CN1CCCC1)[C@@H](O)c1ccc2c(c1)OCCO2` [Compound 677] the pIC50 was 5.00 to 5.52.
With `O=C(CC12CC3CC(CC(C3)C1)C2)N[C@@H](CN1CCCC1)C(O)c1ccc2c(c1)OCCO2` (stereo partly shown) [Compound 636] the pIC50 was 5.00 to 5.52.
For `O=C(N[C@H](CO)[C@H](O)c1ccc(C(F)(F)F)cc1)OCc1ccccc1` [Compound 483], the pIC50 was 5.00 to 5.52.
For `COc1cc([C@@H](O)[C@@H](CN2CCCC2)NC(=O)CCCCCC(C)=O)cc(OC)c1OC` [Compound 671], the pIC50 was 5.00 to 5.52.
Molecule `CCCCCCCC(=O)N[C@H](CN1CC[C@H](F)C1)[C@H](O)c1ccc2c(c1)OCCO2` [Compound 510] has a pIC50 of 5.00 to 5.52.
In the case of `COc1ccc(C(=O)CCCCCC(=O)N[C@H](CN2CCCC2)[C@H](O)c2ccc(Cl)s2)cc1` [Compound 358], the pIC50 was no less than 7.00.
`COc1ccc(OCCC(=O)N[C@H](CN2CCCC2)[C@H](O)c2ccccc2OC)cc1` [Compound 700] showed a pIC50 of 6.00 to 7.00.
`O=C(CCCCc1nc(C2CC2)no1)N[C@H](CN1CCCC1)[C@H](O)c1ccc2c(c1)OCCO2` [Compound 650] was tested, and the pIC50 was 6.00 to 7.00.
`COc1ccc(OCCC(=O)N[C@H](CN2CCCCC2C)[C@H](O)c2ccc3c(c2)OCCO3)cc1` (stereo partly shown) [Compound 606] gave a pIC50 of 5.00 to 5.52.
For `COc1ccc(C(=O)CCCCC(=O)N[C@H](CN2CCCC2)[C@H](O)c2ccc(OCCCOc3ccccc3F)cc2)cc1` [Compound 367], the pIC50 was no less than 7.00.
With `CCCCCCOc1ccc([C@@H](O)[C@@H](CN2CCCC2)NC(=O)CCCCC(=O)c2ccc(OCCOC)cc2)cc1` [Compound 443] the pIC50 was no less than 7.00.
`CCCCCCCC(=O)N[C@H](CN1CCC[C@H]1C(F)(F)F)[C@H](O)c1ccc2c(c1)OCCO2` [Compound 543] showed a pIC50 of 5.00 to 5.52.
`COc1ccc(C(=O)CCCCCC(=O)N[C@H](CN2CCCC2)[C@H](O)c2ccc(OCc3ccccc3)cc2)cc1` [Compound 704] gave a pIC50 of no less than 7.00.
Work on `COc1ccc(C(=O)CCCCCC(=O)N[C@H](CN2CC3CC3C2)[C@H](O)c2ccc3c(c2)OCCO3)cc1` (stereo partly shown) [Compound 537] yielded a pIC50 of no less than 7.00.
Work on `COc1ccc(C(=O)CCCCC(=O)N[C@H](CN2CCCC2)[C@H](O)/C=C/c2ccccc2)cc1` [Compound 395] yielded a pIC50 of 5.00 to 5.52.
Molecule `O=C(CCCCCC(=O)c1ccc(F)cc1)N[C@H](CN1CC[C@H](O)C1)[C@H](O)c1ccc2c(c1)OCCO2` [Compound 653] has a pIC50 of no less than 7.00.
With `O=C(N[C@H](CN1CCCC1)[C@H](O)c1ccc2c(c1)OCCO2)C1CCOCC1` [Compound 579] the pIC50 was 5.00 to 5.52.
Molecule `CCCCOc1ccc([C@@H](O)[C@@H](CN2CC[C@@H](F)C2)NC(=O)CCCCC(=O)c2ccc(F)cc2)cc1` [Compound 658] has a pIC50 of 6.00 to 7.00.
In the case of `Cc1noc(CCCCC(=O)N[C@H](CN2CC[C@@H](F)C2)[C@H](O)c2ccc3c(c2)OCCO3)n1` [Compound 646], the pIC50 was 5.00 to 5.52.
In the case of `O=C(N[C@H](CN1CCCC1)[C@H](O)c1ccc2c(c1)OCCO2)C1CC[C@@H](C(=O)c2ccc(F)cc2)C1` (stereo partly shown) [Compound 635], the pIC50 was 5.00 to 5.52.
For `CCCCCCCC(=O)N[C@H](CN1CC(F)(F)C1)[C@H](O)c1ccc2c(c1)OCCO2` [Compound 623], the pIC50 was 5.00 to 5.52.
For `COc1ccc([C@@H](O)[C@@H](CN2CCCC2)NC(=O)Cc2ccc(OC(F)(F)F)cc2)cc1C` [Compound 389], the pIC50 was no less than 7.00.
`COc1ccc(C(=O)CCCCCC(=O)N[C@H](CN2CCCC2)[C@H](O)c2cc(OC)c(OC)c(OC)c2)cc1` [Compound 668] showed a pIC50 of 5.52 to 6.00.
`COc1ccc(S(=O)(=O)CCCCCC(=O)N[C@H](CN2CC[C@@H](F)C2)[C@H](O)c2ccc3c(c2)OCCO3)cc1` [Compound 564] showed a pIC50 of 6.00 to 7.00.
For `COc1ccc(OCCC(=O)N[C@H](CN2CCCC2)[C@H](O)c2ccc(OC)c(Cl)c2)cc1` [Compound 711], the pIC50 was no less than 7.00.
In the case of `COCCOc1ccc([C@@H](O)[C@@H](CN2CCCC2)N(CCOC)C(=O)CCCCC(=O)c2ccc(OC)cc2)cc1` [Compound 423], the pIC50 was 5.52 to 6.00.
`CCCCCCCC(=O)N[C@H](CN1CCCC1)[C@H](O)c1ccc2c(c1)OC(F)(F)C(F)(F)O2` [Compound 400] gave a pIC50 of 5.00 to 5.52.
`COc1ccc(OCCC(=O)N[C@H](CN2CCCC2)[C@H](O)c2ccc(OCCOc3cccc(C)c3)cc2)cc1` [Compound 722] showed a pIC50 of no less than 7.00.
`COCCOCCOc1ccc([C@@H](O)[C@@H](CN2CCCC2)NC(=O)CCCCC(=O)c2ccc(OC)cc2)cc1` [Compound 415] showed a pIC50 of 6.00 to 7.00.
In the case of `O=C(CCCS(=O)(=O)C1CCCCC1)N[C@H](CN1CCCC1)[C@H](O)c1ccc2c(c1)OCCO2` [Compound 561], the pIC50 was 5.00 to 5.52.
`CC(=O)CCCCCC(=O)N[C@H](CN1CCCC1)[C@H](O)c1ccc(OC(F)(F)F)cc1` [Compound 665] showed a pIC50 of 5.00 to 5.52.
`O=C(CCCNC(=O)NC1CCCCC1)N[C@H](CN1CCCC1)[C@H](O)c1ccc2c(c1)OCCO2` [Compound 691] gave a pIC50 of 5.00 to 5.52.
With `COc1ccc(OCCC(=O)N[C@H](CN2CCC(C)(C)C2)[C@H](O)c2ccc3c(c2)OCCO3)cc1` [Compound 519] the pIC50 was 5.00 to 5.52.
Work on `COc1ccc(C(=O)CCCCCC(=O)N[C@H](CN2CC[C@@H](F)C2)[C@H](O)c2ccc3c(c2)OCCO3)cc1` [Compound 531] yielded a pIC50 of no less than 7.00.
For `COc1ccc(OCCC(=O)N(Cc2cccc3ccncc23)[C@H](CN2CCCC2)[C@H](O)c2ccc(O)cc2)cc1` [Compound 719], the pIC50 was 5.00 to 5.52.
With `COC[C@@H]1CCCN1C[C@@H](NC(=O)CCOc1ccc(OC)cc1)[C@@H](O)c1ccc2c(c1)OCCO2` [Compound 535] the pIC50 was 5.00 to 5.52.
For `COc1ccc(OCCC(=O)N[C@H](CN2CCCC2)[C@H](O)c2ccc(-c3ccccc3)cc2)cc1` [Compound 695], the pIC50 was 6.00 to 7.00.
For `COc1ccc(OCCC(=O)N[C@H](CN2CCCC2)[C@H](O)c2ccc(Cl)cc2)cc1` [Compound 382], the pIC50 was 6.00 to 7.00.
`COc1ccc(C(=O)CCCCC(=O)N[C@H](CN2CCCC2)[C@H](O)c2ccc(OCCCC(F)(F)F)cc2)cc1` [Compound 432] was tested, and the pIC50 was no less than 7.00.
`COc1ccc(C(=O)CCCCC(=O)N[C@H](CN2CCCC2)[C@H](O)c2ccc(OCCOc3ccc(C#N)cc3)cc2)cc1` [Compound 364] showed a pIC50 of no less than 7.00.
